Measurements from ChEMBL document CHEMBL3525970, “Glutaredoxin and thioredoxin can be involved in producing the pharmacologically active metabolite of a thienopyridine antiplatelet agent, prasugrel” (Drug Metab Dispos, 2011).

Experiments:
[1] = Drug metabolism in potassium phosphate buffer treated with R-133490 at 1 uM after 1 to 10 mins by LC-MS/MS analysis in presence of human liver cytosol and glutathione; type: physicochemical
Liver microsome = assay: Drug metabolism in human liver microsomes treated with R-133490 at 1 uM after 1 to 10 mins by LC-MS/MS analysis in presence of human liver cytosol and glutathione; type: ADME
[2] = Drug metabolism in potassium phosphate buffer treated with R-133490 at 1 uM after 1 to 10 mins by LC-MS/MS analysis; type: physicochemical
Liver cytosol = assay: Drug metabolism in human liver cytosol treated with R-133490 at […] 0.05 mM after 5 mins by HPLC analysis in presence of dithiothreitol and 67 ug/ml anti-human thioredoxin antibody; type: ADME; settings: 50 µM

Measured: Drug metabolism

O=C(O)/C=C1/CN(C(C(=O)C2CC2)c2ccccc2F)CCC1S (centres undefined) [R-138727]
metabolite_detected: all assays above
